Results as given in patent US7972800B2, “Screening method for binding property or signal transduction alterations” (Takeda Pharmaceutical Company Limited, priority 2003, dated 2011).

Tests used:
Type in all cases: cell-based
mouse GPR39 = molecular target: T1, mouse GPR39 (Mus musculus, UniProt Q5U431, T447P); details: FLIPR, Fluo-3AM (FIG. 14 through FIG. 18)
T1 construct: expressed in transfected cells; host or cells: CHO cells, vector pAKKO-111H
T1 sequence (Q5U431 1-456 T447P): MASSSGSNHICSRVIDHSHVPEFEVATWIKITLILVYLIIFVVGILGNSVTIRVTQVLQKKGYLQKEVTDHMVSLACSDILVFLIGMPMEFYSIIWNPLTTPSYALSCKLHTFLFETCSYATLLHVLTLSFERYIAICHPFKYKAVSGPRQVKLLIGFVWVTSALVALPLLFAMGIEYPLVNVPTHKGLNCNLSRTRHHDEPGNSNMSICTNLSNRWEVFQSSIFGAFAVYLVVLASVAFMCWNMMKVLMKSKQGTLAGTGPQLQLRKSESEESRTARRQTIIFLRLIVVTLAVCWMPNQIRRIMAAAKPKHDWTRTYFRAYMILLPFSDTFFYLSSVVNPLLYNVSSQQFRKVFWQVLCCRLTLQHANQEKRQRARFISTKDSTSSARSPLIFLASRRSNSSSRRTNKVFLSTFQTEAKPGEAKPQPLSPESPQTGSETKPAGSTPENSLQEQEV
Protocol: (§1) Using the CHO cell line where rat GPR39 was stably expressed, the agonist activity of metal ions was detected using FLIPR in terms of the intracellular calcium-increasing reaction as an indicator. The CHO cell line used, wherein rat GPR39 was stably expressed, was cultured in HAM's αMEM (Invitrogen Corp.) containing 10% calf fetal serum (Invitrogen Corp.). On the day before the assay was conducted, the human GPR39-expressing CHO cell line was cultured in a culture flask to reach a confluent state. After washing with PBS, the cells were scraped off using trypsin and centrifuged for recovery. The cells were then suspended in medium and the suspension was adjusted to 3×10^5 cells/ml. Then, the suspension was dispensed onto a black walled 96-well plate (Costar) in 100 μl each per well, followed by incubation overnight in a CO2 incubator.
(§2) On the day when the assay was conducted, various test samples were added to the cells and the changes of intracellular calcium levels in this case were determined by FLIPR (Molecular Device). In order to determine the changes in intracellular calcium levels on FLIPR, the cells were pre-treated by the following procedures. First, for the purpose of adding a fluorescent dye Fluo-3AM (DOJIN) to the cells or washing the cells immediately before the FLIPR assay, an assay buffer was prepared. A solution was prepared by adding 20 ml of 1M HEPES (pH 7.4) (DOJIN) to 1000 ml of HBSS (Invitrogen Corp.) (hereinafter HBSS/HEPES solution), to which solution was added 10 ml of a solution mixture obtained by dissolving 710 mg of Probenecid (Sigma) in 5 ml of 1N NaOH and further adding 5 ml of HBSS/HEPES solution thereto. The resulting solution was used as the assay buffer. Next, 50 μg of Fluo-3AM was dissolved in 21 μl of DMSO (DOJIN) and an equal volume of 20% Pluronic acid (Molecular Probes) was added to and mixed with the solution. The mixture was then added to 10.6 ml of the assay buffer supplemented with 105 μl of fetal calf serum to prepare a fluorescent dye solution. The medium for the CHO cells where human GPR39 was stably expressed was removed. Immediately thereafter, the fluorescent dye solution was dispensed in 100 μl each/well and the cells were incubated in a CO2 incubator for an hour so that the fluorescent dye was taken up into the cells. The cells after the incubation was washed with the assay buffer described above and set on FLIPR. A test sample to be added to the CHO cells where rat GPR39 was stably expressed was prepared using the assay buffer and set on FLIPR at the same time. Following the pre-treatment above, the changes in intracellular calcium levels after the addition of each test sample were determined by FLIPR.
Using the CHO cell line where mouse GPR39 was stably expressed, the agonist activity of metal ions was detected on FLIPR in accordance with the procedures described in EXAMPLE 5, in terms of the intracellular calcium-increasing reaction as an indicator.

rat GPR39 = details: FLIPR, Fluo-3AM (FIG. 9 through FIG. 13)
Protocol: as §1, §2

human GPR39 = molecular target: T2, human GPR39 (Homo sapiens, UniProt O43194); design: expressed in transfected cells; host or cells: CHO cells, vector pAKKO-111H; details: FLIPR, Fluo-3AM; metal salt added, 10-300 μM (FIGS. 1-4)
T2 sequence (O43194 1-453): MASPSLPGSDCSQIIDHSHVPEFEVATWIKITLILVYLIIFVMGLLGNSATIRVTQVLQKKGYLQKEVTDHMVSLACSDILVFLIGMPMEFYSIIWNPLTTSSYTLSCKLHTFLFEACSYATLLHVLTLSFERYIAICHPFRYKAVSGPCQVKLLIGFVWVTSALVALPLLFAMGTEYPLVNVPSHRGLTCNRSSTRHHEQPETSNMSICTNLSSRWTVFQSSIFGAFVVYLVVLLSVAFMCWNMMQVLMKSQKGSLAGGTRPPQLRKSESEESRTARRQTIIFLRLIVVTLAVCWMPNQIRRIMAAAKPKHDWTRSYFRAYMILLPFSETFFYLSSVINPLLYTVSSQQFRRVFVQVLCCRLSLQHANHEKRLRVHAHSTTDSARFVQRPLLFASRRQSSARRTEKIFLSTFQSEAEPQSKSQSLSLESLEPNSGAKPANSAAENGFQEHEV
Protocol: The human GPR39-GFP expression vector-transfected CHO cell line produced in EXAMPLE 1 (CHO/hGPR39-GFP) was diluted in 3×10^4 cells/100 μl. The dilution was dispensed onto a Black walled 96-well plate (Costar) in 100 μl each per well, followed by incubation overnight in a CO2 incubator. Changes in intracellular calcium levels were determined by the following method using FLIPR (Molecular Device). In 21 μl of DMSO (DOJIN), 50 μg of Fluo-3AM (DOJIN) was dissolved and an equal volume of 20% Pluronic acid (Molecular Probes) was added to the solution. After mixing them, the resulting mixture was added to 10.6 ml of assay buffer [prepared by adding 20 ml of 1M HEPES (pH 7.4) (DOJIN) to HBSS (Invitrogen Corp.) and further adding to the solution 10 ml of a solution mixture, which mixture was prepared by dissolving 710 mg of Probenecid (Sigma) in 5 ml of 1N NaOH and then adding thereto 5 ml of the HBSS/HEPES solution above] supplemented with 105 μl of fetal calf serum to prepare a fluorescent dye solution. The medium in the cell plate was removed. Immediately thereafter, the fluorescent dye solution was dispensed in 100 μl each/well and the cells were incubated in a CO2 incubator for an hour so that the fluorescent dye was taken up into the cells. The cells after the incubation were washed with the assay buffer described above and set on FLIPR. Compounds of metal elements to be added to the cells were diluted to the respective concentration with the assay buffer. The dilutions were dispensed onto plates for ligands and set on FLIPR. Following the pre-treatment above, changes in intracellular calcium levels after addition of metal elements were determined by FLIPR to study agonist activities.

[Cl][Cu][Cl] [copper chloride]
dose-dependently increased: intracellular calcium levels of CHO/mGPR39 (mouse GPR39) | intracellular calcium levels of CHO/rGPR39 (rat GPR39) | intracellular calcium levels of CHO/hGPR39-GFP (human GPR39)

[Cl][Ni][Cl] [nickel chloride]
dose-dependently increased: intracellular calcium levels of CHO/mGPR39 (mouse GPR39) | intracellular calcium levels of CHO/rGPR39 (rat GPR39) | intracellular calcium levels of CHO/hGPR39-GFP (human GPR39)
